System: gastric ulcers (ulcerous mucosal lesions)
Assay: antiulcerogenic action on the rat (reserpine/indometacin/cold-induced gastric ulcers, oral test substance)
Format: in vivo, female Sprague-Dawley rats
Conditions: for ED50: Rattus norvegicus, oral, dose which reduces the ulcerous area by 50%, reserpine 1 mg/kg i.p., indometacin 21.5 mg/kg i.p., 6 hours at 8° C., read-out: Antiulcerogenic action on the rat, ED 50%; for Antiulcerogenic action on the rat, Relative activity: relative to pirenzepine = 1.0
Protocol: To investigate the antiulcerogenic action, 1 mg/kg of reserpine is administered intraperitoneally to groups of 10 female Sprague-Dawley rats each weighing 160-180 g, and the rats then remain without food for 18 hours (water ad libitum). This period is followed by intraperitoneal administration of 21.5 mg/kg of indometacin and oral administration of the test substance to the animals, which are then kept for 6 hours at 8° C., after which they are sacrificed. The stomachs are removed, and the area of ulcerous mucosal lesions is determined. The dose which reduces the ulcerous area by 50%, ie. the ED 50%, is determined from the linear regression between the logarithms of the doses administered and the relative reduction in the area of ulcerations, based on the control animals.
Pirenzepine (5,11-dihydro-11-[(4-methylpiperazin-1-yl)-acetyl]-6H-pyrido[2,3-b][1,4]benzodiazepin-6-one; German Pat. No. 1,795,183) is used as the reference substance.

| Compound | ED50 [mg/kg] | Antiulcerogenic action on the rat, Relative activity |
| --- | --- | --- |
| CN1CCN(CC(=O)N2c3ccccc3C(=O)Nc3cccnc32)CC1 [pirenzepine, 5,11-dihydro-11-[(4-methylpiperazin-1-yl)-acetyl]-6H-pyrido[2,3-b][1,4]benzodiazepin-6-one, reference compound] | 6.5 |  |
| O=C(/C=C1/c2ccccc2NC(=O)c2ccccc21)OCCN1CCOCC1 [Example 1, cis, cis-11-(2-morpholin-1-yl)-ethoxycarbonylmethylene-5,6-dihydromorphanthridin-6-one] | 1.5 | 4.3 |
| O=C(C=C1c2ccccc2NC(=O)c2ccccc21)OCCN1CCOCC1 (mixture of isomers) [Example 1, cis,trans-11-(2-Morpholin-1-yl)-ethoxycarbonylmethylene-5,6-dihydromorphanthridin-6-one] | 1.9 | 3.4 |
| CN(C)CCOC(=O)C=C1c2ccccc2NC(=O)c2ccccc21 (mixture of isomers) [Example 2, cis,trans-11-(2-Dimethylamino)-ethoxycarbonylmethylene-5,6-dihydromorphanthridin-6-one] | 0.64 | 10.2 |
| O=C(C=C1c2ccccc2NC(=O)c2ccccc21)OCCCN1CCOCC1 (mixture of isomers) [Example 14, cis,trans-11-(3-Morpholin-1-yl)-propoxycarbonylmethylene-5,6-dihydromorphanthridin-6-one] | 0.83 | 7.8 |
| O=C(/C=C1\c2ccccc2NC(=O)c2ccccc21)OCCN1CCOCC1 [Example 1, trans, trans-11-(2-morpholin-1-yl)-ethoxycarbonylmethylene-5,6-dihydromorphanthridin-6-one] | 5.3 | 1.2 |
